Experimental findings from patent publication US6875761B2 (Eisai Co., Ltd., priority 1997, dated 2005) are described below.

Structures can show the parent of a compound that is named as a salt.

For one assay, the target named is T1, serotonin 2 receptor (Rattus norvegicus, UniProt P14842).
T1 construct: To the receptor fraction of the cerebral cortex were added a test compound and 0.3 nM of [^3H] ketanserin; from tissue; host or cells: rat cerebral cortex membrane fraction
The assay is described as follows: Binding test on [3H] ketanserin, cerebral cortex receptor fraction. Further details: species or system SD rats. Conditions: 0.3 nM [3H] ketanserin, 37° C. 15 min, read-out: 5HT2.

In the next assay the target is T2, serotonin 1A receptor (Rattus norvegicus, UniProt P19327).
T2 construct: To the receptor fraction of the hippocampus were added a test compound and 0.5 nM of [^3H]; 8-hydroxy-dipropylaminotetralin; from tissue; host or cells: rat hippocampus membrane fraction
T2 sequence (P19327 1-422): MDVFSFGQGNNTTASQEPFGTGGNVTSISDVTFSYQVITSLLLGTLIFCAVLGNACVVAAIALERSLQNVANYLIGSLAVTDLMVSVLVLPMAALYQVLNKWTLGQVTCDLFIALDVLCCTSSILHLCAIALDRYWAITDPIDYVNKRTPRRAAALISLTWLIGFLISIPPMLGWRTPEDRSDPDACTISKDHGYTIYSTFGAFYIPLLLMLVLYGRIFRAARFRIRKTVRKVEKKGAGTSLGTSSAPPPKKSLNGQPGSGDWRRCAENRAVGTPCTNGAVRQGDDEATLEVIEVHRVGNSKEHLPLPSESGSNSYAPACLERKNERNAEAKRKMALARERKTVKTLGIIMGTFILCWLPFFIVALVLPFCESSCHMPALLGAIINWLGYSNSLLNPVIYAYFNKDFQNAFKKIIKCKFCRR
The assay is described as follows: Binding test on [3H] 8-hydroxy-dipropylaminotetralin, hippocampus receptor fraction. The conditions noted are these: rat hippocampus receptor fraction, 0.5 nM [3H] 8-OH-DPAT, room temperature 30 min; read-out: 5HT1. Further details: species or system SD rats.

T1 sequence (P14842 whole entry): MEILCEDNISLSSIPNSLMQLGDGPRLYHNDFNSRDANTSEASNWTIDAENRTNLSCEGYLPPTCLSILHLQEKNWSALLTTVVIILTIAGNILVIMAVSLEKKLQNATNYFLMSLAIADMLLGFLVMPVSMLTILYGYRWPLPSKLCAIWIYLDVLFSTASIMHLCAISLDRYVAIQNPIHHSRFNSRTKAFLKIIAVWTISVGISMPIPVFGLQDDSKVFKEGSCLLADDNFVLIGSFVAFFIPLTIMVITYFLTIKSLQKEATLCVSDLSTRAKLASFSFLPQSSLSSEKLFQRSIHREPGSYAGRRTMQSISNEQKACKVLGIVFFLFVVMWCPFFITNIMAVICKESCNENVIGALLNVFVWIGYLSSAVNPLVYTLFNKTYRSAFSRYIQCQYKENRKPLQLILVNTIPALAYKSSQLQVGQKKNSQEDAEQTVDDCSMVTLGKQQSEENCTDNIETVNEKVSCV

For the compound `CCCCNC(=O)Cc1ccc(-c2cc3ccccc3c(N3CCN(CC)CC3)n2)cc1` [Example 89, 3-(4-Butylaminocarbonylmethylphenyl)-1-(4-ethylpiperazin-1-yl)isoquinoline Hydrochloride], the Ki on serotonin 2 receptor worked out at 10 nM; on serotonin 1A receptor it was 6.3 nM.

Turning to `CCN1CCN(c2nc(-c3ccc(CC(C)(C)O)cc3)cc3ccccc23)CC1` [Example 377, 1-(4-Ethylpiperazin-1-yl)-3-[4-(2-Hydroxy-2-Methylpropyl)Phenyl]Isoquinoline Oxalate], the values for the Ki at serotonin 2 receptor and on serotonin 1A receptor were 16.5 nM and 28.5 nM, respectively.

With `CCCCNC(=O)c1ccc(-c2cc3ccsc3c(N3CCN(CC)CC3)n2)cc1` [Example 452, 7-(4-ethylpiperazin-1-yl)-5-[4-(N-butylcarbamoyl)phenyl]thieno[2,3-c]pyridine dihydrochloride], the Ki on serotonin 2 receptor was determined as 7.04 nM; on serotonin 1A receptor it was 19.6 nM.

On to `CCC(O)c1cc(-c2cc3ccccc3c(N3CCN(CC)CC3)n2)cs1` (centres unmarked) [Example 164, 1-(1-ethylpiperazin-4-yl)-3-[2-(1-hydroxypropyl)thiophen-4-yl]isoquinoline hydrochloride], for which the Ki at serotonin 2 receptor was determined as 11.9 nM; at serotonin 1A receptor, 9.38 nM.

In the case of `CCN1CCN(c2nc(-c3ccc(C4=CCC(O)CC4)cc3)cc3ccccc23)CC1` (centres unmarked) [Example 64, 3-[4-(4-Hydroxy-1-Cyclohexen-1-Yl)Phenyl]-1-(4-Ethylpiperazin-1-Yl)Isoquinoline Hydrochloride], the results for the Ki at serotonin 2 receptor and on serotonin 1A receptor were 8.5 nM and 87 nM, respectively.

On to `CCN1CCN(c2nc(-c3ccc4c(c3)OCCO4)cc3ccccc23)CC1` [Example 332, 1-(4-ethylpiperazin-1-yl)-3-(3,4-ethylenedioxyphenyl)isoquinoline dihydrochloride], for which the figures for the Ki at serotonin 2 receptor and on serotonin 1A receptor were 12.1 nM and 13.9 nM, respectively.

On to `CCN1CCN(c2nc(-c3ccnc(OCc4ccccc4)c3)cc3ccccc23)CC1` [406 2-Benzyloxy, 1-(4-ethylpiperazin-1-yl)-3-(2-benzyloxypyridin-4-yl)isoquinoline], for which the figures for the Ki at serotonin 2 receptor and at serotonin 1A receptor were 88.1 nM and 46 nM, respectively.

For `CCN1CCN(c2nc(CNc3ccc(OC)cc3)cc3ccccc23)CC1` [Example 219, 1-(1-ethylpiperazin-4-yl)-3-(4-methoxyanilinomethyl)isoquinoline oxalate], the Ki on serotonin 2 receptor amounted to 5.92 nM; on serotonin 1A receptor it was 2.99 nM.

With `CCN1CCN(c2nc(-c3ccc(C(O)CC(C)C)cc3)cc3ccsc23)CC1` (centres unmarked) [Example 255, 7-(1-ethylpiperazin-4-yl)-5-[4-(1-hydroxy-3-methylbutyl)phenyl]thieno[2,3-c]pyridine Dihydrochloride], the Ki on serotonin 2 receptor was 40 nM; on serotonin 1A receptor it was 75.4 nM.

For the compound `CCN1CCN(c2nc(-c3ccc(CN4CCSCC4)cc3)cc3ccccc23)CC1` [Example 94, 3-(4-Thiomorpholinylmethylphenyl)-1-(4-ethylpiperazin-1-yl)isoquinoline Hydrochloride], the values for the Ki on serotonin 2 receptor and at serotonin 1A receptor were 41.2 nM and 6.4 nM, respectively.

For the compound `CCN1CCN(c2nc(-c3ccc(C(=O)CC(C)C)cc3)cc3ccsc23)CC1` [Example 272, 7-(1-ethylpiperazin-4-yl)-5-[4-(3-methylbutanoyl)phenyl]thieno[2,3-c]pyridine dihydrochloride], the Ki was 22.4 nM on serotonin 2 receptor and 160 nM at serotonin 1A receptor.

With `CCN1CCN(c2nc(-c3ccc(N4CCOC4=O)cc3)cc3ccccc23)CC1` [Example 95, 3-[4-(3-Oxazolidinone)phenyl]-1-(4-ethylpiperazin-1-yl)isoquinoline Hydrochloride], the Ki was determined as 21.2 nM on serotonin 2 receptor and 7.8 nM on serotonin 1A receptor.

`CCN1CCN(c2nc(-c3ccc(OCC(C)(C)O)cc3)cc3ccsc23)CC1` [Example 260, 7-(1-Ethylpiperazin-4-yl)-5-[4-(2-hydroxy-2-methylpropoxy)phenyl]thieno[2,3-c]pyridine dihydrochloride]: the Ki was 0.54 nM on serotonin 2 receptor and 67.8 nM at serotonin 1A receptor.

`CCN1CCN(c2nc(-c3cc(OC)cc(OC)c3)cc3ccccc23)CC1` [Example 15, 3-(3,5-dimethoxyphenyl)-1-(4-ethylpiperazin-1-yl)isoquinoline Dihydrochloride]: the values for the Ki at serotonin 2 receptor and on serotonin 1A receptor were 19.5 nM and 55.5 nM, respectively.

For `CCN1CCN(c2nc(-c3ccc(C(O)CCO)cc3)cc3ccccc23)CC1` (centres unmarked) [Example 24, 3-[4-(1,3-dihydroxypropyl)phenyl]-1-(4-ethylpiperazin-1-yl)isoquinoline hydrochloride], the results for the Ki on serotonin 2 receptor and at serotonin 1A receptor were 7.4 nM and 11.7 nM, respectively.

Take `CCN1CCN(c2nc(-c3ccc(CO)s3)cc3ccccc23)CC1` [Example 162, 1-(1-ethylpiperazin-4-yl)-3-(2-hydroxymethylthiophen-5-yl)isoquinoline dihydrochloride]: the Ki on serotonin 2 receptor turned out to be 84.7 nM; on serotonin 1A receptor, 10.7 nM.

Regarding `CCN1CCN(c2nc(-c3ccc(C4=CCOCC4)s3)cc3ccccc23)CC1` [Example 176, 3-[2-(5,6-Dihydro-2H-Pyran-4-Yl)Thiophen-5-Yl]-1-[4-Ethylpiperazin-1-Yl)Isoquinoline Hydrochloride], the Ki stood at 12.4 nM at serotonin 2 receptor and 155 nM at serotonin 1A receptor.

Consider `CCC(O)c1ccc(-c2cc3sccc3c(N3CCN(CC)CC3)n2)cc1` (centres unmarked) [Example 282, 4-(4-ethylpiperazin-1-yl)-6-[4-(1-hydroxypropyl)phenyl]thieno-[3,2-c]pyridine oxalate], for which the Ki was determined as 6.46 nM at serotonin 2 receptor and 10.8 nM on serotonin 1A receptor.

Regarding `CCN1CCN(c2nc(NS(=O)(=O)c3ccc(OC)cc3)cc3ccccc23)CC1` [Example 423, 1-(4-ethylpiperazin-1-yl)-3-(4-methoxybenzenesulfonamide)isoquinoline], the results for the Ki at serotonin 2 receptor and at serotonin 1A receptor were 332 nM and 9.81 nM, respectively.

For the compound `CCN1CCN(c2nc(/C=C/c3cncc(N4CCOCC4)n3)cc3ccccc23)CC1` [Example 216, 3-{(E)-2-[2-(4-morpholinyl)pyrazin-6-yl]ethenyl}-1-(4-ethylpiperazin-1-yl)isoquinoline oxalate], the values for the Ki at serotonin 2 receptor and at serotonin 1A receptor were 15.5 nM and 16.6 nM, respectively.

`CCN1CCN(c2nc(-c3ccc(CO)c(F)c3)cc3ccccc23)CC1` [Example 28, 1-(4-ethylpiperazin-1-yl)-3-[4-(4-hydroxymethyl-3-fluoro)phenyl]isoquinoline hydrochloride]: the Ki at serotonin 2 receptor came to 9.1 nM; at serotonin 1A receptor it was 24.4 nM.

As to `CCN1CCN(c2nc(-c3ccc(C4=CCOCC4)cc3)cc3ccccc23)CC1` [Example 84, 3-[4-(5,6-Dihydro-2H-pyran-4-yl)phenyl]-1-(4-ethylpiperazin-1-yl)isoquinoline Hydrochloride], the Ki on serotonin 2 receptor is 0.9 nM; at serotonin 1A receptor, 72.1 nM.

As for `CCN1CCN(c2nc(-c3ccc(OCC(C)O)cc3)cc3cccnc23)CC1` (stereo in doubt) [Example 246, 8-(1-ethylpiperazin-4-yl)-6-{4-[(S)-2-hydroxypropoxy}phenyl]-1,7-naphthyridine Dihydrochloride], the Ki at serotonin 2 receptor was 13.9 nM; on serotonin 1A receptor it was 87 nM.

Take `CCN1CCN(c2nc(-c3ccc(S(=O)(=O)NC4CC4)cc3)cc3ccccc23)CC1` [Example 363, 1-(4-ethylpiperazin-1-yl)-3-[4-(N-cyclopropylsulfamoyl)phenyl]isoquinoline dihydrochloride]: the Ki on serotonin 2 receptor worked out at 0.61 nM; on serotonin 1A receptor it was 3.5 nM.

Consider `CCN1CCN(c2nc(-c3ccc4c(c3)CC(C)(CO)O4)cc3ccsc23)CC1` (centres unmarked) [Example 456, dihydrochloride], for which the Ki on serotonin 2 receptor amounted to 16.2 nM; on serotonin 1A receptor it was 63.3 nM.

Turning to `CCN1CCN(c2nc(-c3ccc(N4CCC(OC)CC4)cc3)cc3ccccc23)CC1` [Example 98, 1-(4-Ethylpiperazin-1-yl)-3-[4-(4-methoxypiperidin-1-yl)phenyl]isoquinoline Trihydrochloride], the Ki on serotonin 2 receptor was 2.7 nM; on serotonin 1A receptor it was 61.6 nM.

Regarding `CCN1CCN(c2nc(Sc3ccccn3)cc3ccccc23)CC1` [Example 378, 1-(4-Ethylpiperazin-1-yl)-3-(2-Pyridylthio)Isoquinoline Oxalate], the results for the Ki at serotonin 2 receptor and on serotonin 1A receptor were 95.2 nM and 42.7 nM, respectively.

`CCN1CCN(c2nc(-c3ccc(S(=O)(=O)CCCOC)cc3)cc3ccccc23)CC1` [Example 350, 1-(4-ethylpiperazin-1-yl)-3-{4-[(3-methoxypropyl)sulfonyl]phenyl}isoquinoline]: the Ki on serotonin 2 receptor is 16.7 nM; on serotonin 1A receptor, 2.6 nM.

`CCN1CCN(c2nc(-c3ccc(OC)cc3)cc3cccnc23)CC1` [Example 244, 8-(4-ethylpiperazin-1-yl)-6-(4-methoxyphenyl)pyrido[2,3-c]pyridine Hydrochloride]: the Ki came out at 78.6 nM on serotonin 2 receptor and 27.1 nM on serotonin 1A receptor.

Take `CCN1CCN(c2nc(-c3ccc(C(O)C4CCCCC4)cc3)cc3ccsc23)CC1` (centres unmarked) [Example 457, 7-(4-Ethylpiperazin-1-yl)-5-[4-(cyclohexylhydroxymethyl)phenyl]thieno[2,3-c]pyridine dihydrochloride]: the Ki at serotonin 2 receptor came out at 281 nM; on serotonin 1A receptor it was 63.3 nM.

With `CCN1CCN(c2nc(-c3ccc(CCCOC)cn3)cc3ccccc23)CC1` [Example 141, 1-(1-Ethylpiperazin-4-yl)-3-[5-(3-Methoxypropyl)Pyridin-2-yl]Isoquinoline Oxalate], the Ki was determined as 20.4 nM at serotonin 2 receptor and 2.9 nM at serotonin 1A receptor.
